# Literature values as cited in US20130217743A1, “CANCER PREVENTION AND TREATMENT METHODS BASED ON DIETARY POLYAMINE CONTENT” (CANCER PREVENTION PHARMACEUTICALS, INC., priority 2010, published 2013).
# Columns and labels:
# [1] = test system: tumors harboring Ki-ras mutations; settings: AOM-treated rats; reduced from 90%
# [2] = human, in vivo
# [3] = for mean half-life: in vivo
# tumor putrescine levels = settings: rat-tumor model, DFMO infusion
# [4] = test system: prostoglandin E2 (PGE2) levels in flat mucosa; settings: 300 mg/day, one month
compound,measurement,setting,value
"CN1C(C(=O)Nc2ccccn2)=C(O)c2ccccc2S1(=O)=O [piroxicam, 4-hydroxy-2-methyl-N-2-pyridyl-2H-1,2-benzothiazine-3-carboxamide 1,1-dioxide]",number of tumors harboring Ki-ras mutations,[1],25%
"CC1=C(CC(=O)O)c2cc(F)ccc2/C1=C\c1ccc([S+](C)[O-])cc1 (centres unmarked) [sulindac, (Z)-5-fluoro-2-methyl-1-((4(methylsulfinyl)phenyl)methylene) 1H-indene-3-acetic acid]","mild gastrointestinal effects, patients",[2],~20%
same,"skin rash and pruritus, patients",[2],5%
same,drug absorbed,[3]; after oral administration,about 90%
same,time to peak plasma levels,[3]; fasting patients,about 2 hours
same,mean half-life,[3],7.8 h
"NCCCC(N)(C(=O)O)C(F)F (racemic) [DFMO, 2-(difluoromethyl)-dl-ornithine]",number of tumors harboring Ki-ras mutations,[1],36%
same,decrease in tumor putrescine levels,tumor putrescine levels,90%
CSc1ccc(/C=C2/C(C)=C(CC(=O)O)c3cc(F)ccc32)cc1 [sulfide metabolite],mean half-life,[3],16.4 h
CC1=C(CC(=O)O)c2cc(F)ccc2/C1=C\c1ccc(S(C)(=O)=O)cc1 [Sulindac sulfone],COX-inhibitory activity,COX,lacks COX-inhibitory activity
CC(C)Cc1ccc(C(C)C(=O)O)cc1 (centres unmarked) [ibuprofen],PGE2 levels in flat mucosa,[4],significant decrease
